Measured values as given in patent US20170027955A1, “EXPRESSION LEVELS OF BCL-XL, BCL2, BCL-W, AND BAD AND CANCER THERAPIES” (Constellation Pharmaceuticals, Inc., priority 2014, published 2017).

Key:
NOMO-1 cells = assay: BETi-resistant NOMO-1 AML cells: proliferation and viability; format: cell-based
Description: A BETi-resistant acute myeloid leukemia (AML) cell line was prepared. NOMO-1 cells were treated with increasing concentrations of (9), and when the population consisted of less than 80% live cells, viable cells were enriched by spinning over Ficoll-Paque (GE Healthcare). At the end of this procedure cells were able to proliferate in the presence of 1 μM (9), and were maintained at this dose, which is about 30-fold higher than their original GI50 (FIG. 6A). The ideal growth conditions for the BETi-tolerant cells appeared to be in the presence of ˜0.1 μM (9). While parental cells induced a robust apoptotic response in response to BETi, resistant cells grown in the presence of BETi only underwent apoptosis when the inhibitor was completely removed (FIG. 6B).
(See e.g., Fernald and Kurokawa. Evading Apoptosis in Cancer. Trends Cell Biol. 2013 December; 23(12): 620-633.) Expression of the pro-apoptotic gene BCL2L11 (encoding BIM) was increased in parental cells upon treatment with BETi (FIG. 6C). The relative expression ratio of BCL2L11/BCL2 correlated with the apoptotic response in parental cells (FIG. 6D). In the resistant cells cultured in the presence of (9), high levels of BIM were maintained (FIG. 6C). […]

AMO-1 cell line = assay: Sub-G1 (apoptosis) and G0/G1 (G1 arrest) DNA content after 4 days of treatment, flow cytometry; format: cell-based
Description: (§1) Approximately 60 hematological cancer cell lines were profiled, with representative numbers of leukemia, multiple myeloma/plasmacytoma, and lymphoma cell lines. Cells were grown in the presence of BET inhibitors, (9), (10), and (11), for 4 days. Viability was measured using a fluorescent dye (resazurin, Sigma) that measures mitochondrial fitness as a proxy for cell number. Raw fluorescence values at each compound concentration were normalized to the values in the absence of compound, and percentage growth was plotted to determine the concentration of compound at which 50% growth inhibition was achieved (GI50). Cells were then fixed and stained with propidium iodide for flow cytometric determination of cell cycle distribution. The percentage of cells with less than G0/G1 DNA content (% subG1) was used as a measurement of apoptosis. The percentage of viable cells (non-subG1 cells) with G0/G1 DNA content was measured, and the % GI for control cells was subtracted from the % GI at each compound concentration to calculate a percentage increase in G1.
The bottom panels show the dose dependent increase in the percentage of cells with sub-G1 DNA content (apoptosis) and G0/G1 DNA content (G1 arrest) in response to 4 days of treatment with the same BET inhibitors in the AMO-1 cell line.

[1] = system: BET inhibitor resistant A375 cells; assay: Co-treatment of BET inhibitor resistant A375 cells with (9) and ABT-737 for 11 days; format: cell-based, human; details: resistant A375 cells co-treated with 1 μM (9) and increasing concentrations of ABT-737, 11 days
Description: BCL-xL is targeted by several commercially available BCL-2 family small molecule inhibitors (Billard, C. et al. BH3 mimetics: status of the field and new developments. Mol Cancer Ther. 2013 September; 12(9):1691-700). To test whether pharmacological inhibition of BCL-xL would restore sensitivity to BET inhibition in BET inhibitor resistant A375 cells, parental and resistant cells were co-treated with 1 μM (9) or DMSO and increasing concentrations of the pan-BCL2 inhibitor ABT-737 for 11 days (Ottersdorf, T., et al. An inhibitor of Bcl-2 family proteins induces regression of solid tumours. Nature. 2005 Jun. 2; 435(7042):677-81).

[2] = system: panel of 245 cell lines of varying lineages; assay: Viability of a panel of 245 cell lines treated with BET inhibitor for 3 or 4 d (Cell Titer Glo or resazurin); format: cell-based
Description: In order to identify predictive biomarkers for phenotypic response to BET inhibition, viability data was obtained for a panel of cell lines for which gene expression data are available. A panel of 245 cell lines of varying lineages (FIG. 7) was treated with the BET bromodomain inhibitor (9) for 3 or 4 d. Viability was assessed using either Cell Titer Glo (Promega) or resazurin (Sigma). GI50 values were determined as the concentration of inhibitor that caused viability to be reduced by 50% relative to the vehicle-treated control cells. Cell lines were defined as “sensitive” if GI50 values were at or below 0.25 μM, and as “insensitive” if GI50 values were above 0.25 μM. […] Where multiple probe sets were available for a given gene, the probe set that hybridized to all transcript variants and gave the largest standard deviation across the panel of cell lines was chosen. Based on the correlations shown in FIGS. 8 and 9, cell lines expressing high levels of BCL2 were defined as those expressing an RMA value of BCL2 within the top 33% of all 245 cell lines. Similarly, cell lines expressing low levels of BCL2L1, BCL2L2, and BAD were defined as those expressing RMA values of these genes within the bottom 33% of all cell lines. […] Further enrichment was obtained by combining criteria, with the highest enrichment obtained by selecting for cell lines with high expression of BCL2 and low expression of BCL2L1 (65%±7% response rate) or high expression of BCL2 and low expression of BAD (75%±6% response rate) (FIG. 11). Similar enrichment of responsive cell lines is obtained when cell lines of hematologic origin are considered separately from those of solid tumor origin (FIG. 12-15).

A375 cells = assay: Growth inhibition (GI50) of A375 cells by BET inhibitor; format: cell-based, human
Description: as §1
The human melanoma cell line A375 is phenotypically sensitive to BET inhibition, with a GI50 of 0.10 μM for (9) (FIG. 3, top panel). To understand possible mechanisms of acquired and de novo resistance to BET inhibition, A375 cells were grown in the presence of 1 μM of (9) for approximately 90 days. […]

CC1(C)CCC(CN2CCN(c3ccc(C(=O)NS(=O)(=O)c4ccc(NCC5CCOCC5)c([N+](=O)[O-])c4)c(Oc4cnc5[nH]ccc5c4)c3)CC2)=C(c2ccc(Cl)cc2)C1 [ABT-199, reference compound]
phenotypic sensitivity of resistant cells to BCL2 inhibitor (NOMO-1 cells; resistant NOMO-1 cells, FIG. 6f): increased phenotypic sensitivity

Cc1noc2c1-c1ccc(-c3cnn(C)c3)cc1C(c1ccc(Cl)cc1)=N[C@H]2CC(N)=O [(11)]
maximal response (% sub-G1 and G0/G1 DNA content) (AMO-1 cell line): equivalent

Cc1noc2c1-c1ccccc1C(c1ccc(Cl)cc1)=N[C@H]2CC(N)=O [(10)]
maximal response (% sub-G1 and G0/G1 DNA content) (AMO-1 cell line): equivalent

CN(C)CC[C@H](CSc1ccccc1)Nc1ccc(S(=O)(=O)NC(=O)c2ccc(N3CCN(Cc4ccccc4-c4ccc(Cl)cc4)CC3)cc2)cc1[N+](=O)[O-] [ABT-737]
restoration of sensitivity to (9) [1]: restores sensitivity to (9) in a dose-dependent manner

Cc1sc2c(c1C)C(c1ccc(Cl)cc1)=N[C@@H](CC(N)=O)c1nnc(C)n1-2 [(9)]
maintenance concentration of resistant cells (1 μM) relative to original GI50 (NOMO-1 cells; BETi-resistant NOMO-1 cells proliferating in 1 μM (9)): about 30 fold | maximal response (% sub-G1 and G0/G1 DNA content) (AMO-1 cell line): equivalent | overall response rate (fraction of cell lines with GI50 equal to or less than 0.25 μM) ([2]; all 245 cell lines): 28% | response rate (fraction of cell lines with GI50 equal to or less than 0.25 μM) ([2]; cell lines with high expression of BCL2 and low expression of BAD): 75%±6% | response rate (fraction of cell lines with GI50 equal to or less than 0.25 μM) ([2]; cell lines with high expression of BCL2 and low expression of BCL2L1): 65%±7% | shift in GI50 of resistant clones relative to parental cells (A375 cells; A375 clones grown in 1 μM (9) for approximately 90 days, after 11 days): relatively modest shift in GI50 | GI50 (A375 cells; A-375, parental human melanoma cell line A375): 100 nM
